Laboratory results taken from PMC4113814, “Bioactive Cembrane Derivatives from the Indian Ocean Soft Coral, Sinularia kavarattiensis” (Marine Drugs, 2014).
≈ marks a conversion by molar mass, not a printed value. Entries after “also recorded” stand apart in the source; their conditions may differ. Read-outs that look alike come from different tables or passages of the source.

Experiments:
[1] = test system: cytokine release; test: Inhibition of cytokine release in primary microglial cells, whole cytokine panel (summary statements); assay type: cell-based, Wistar rats; conditions: Rattus norvegicus
Protocol: Primary microglial cell cultures were prepared from brains of newborn Wistar rats. Ethics approval for the experiments was granted by the EBIOTEC Review Board (Valter Lombardi, Iván Carrera and Lucía Fernández-Novoa; Project Identification Code: Sinularia Project October 2013; approved 30 October 2013). The neocortex of one-day-old postnatal rats was aseptically dissected out, and the meninges and blood vessels were carefully removed. Following cutting in a medium containing 20% horse serum, the suspension was filtered through a […] and transferred as a single cell suspension to culture dishes, using 5.0 mL of medium per dish. […] After 72 h of incubation, cells were counted, and 2.5 mL of the supernatants were collected from each well and frozen at −40 °C for cytokine analyses. […]
The supernatants obtained from cell cultures were analyzed for TNF-α, IL-1β, IL-4, IL-6, IL-8, IL-10 and IL-18 using commercially available ELISA kits following the manufacturers’ instructions. […] The cytokine concentration was calculated from a standard curve of the corresponding recombinant cytokine.
The cytotoxicity of the compounds was measured by the colorimetric methyl thiazol tetrazolium (MTT) assay and scored as a percentage of the absorbance reduction of treated cultures versus untreated control cultures. […] The solutions were shaken for 20 min, and the absorbance was measured at 570 nm. […]

[2] = MTT cytotoxicity assay on primary microglial cell cultures; assay type: cell-based, Wistar rats; conditions: Wistar, rat, mean of triplicate
Protocol: (§1) Primary microglial cell cultures were prepared from brains of newborn Wistar rats. Ethics approval for the experiments was granted by the EBIOTEC Review Board (Valter Lombardi, Iván Carrera and Lucía Fernández-Novoa; Project Identification Code: Sinularia Project October 2013; approved 30 October 2013). The neocortex of one-day-old postnatal rats was aseptically dissected out, and the meninges and blood vessels were carefully removed. Following cutting in a medium containing 20% horse serum, the suspension was filtered through a […] and transferred as a single cell suspension to culture dishes, using 5.0 mL of medium per dish. The cultures were incubated at 37 °C in an atmosphere containing 5% CO2. The culture medium consisted of Minimum Essential Medium Eagle, supplemented with L-glutamine, amino acids, vitamins, penicillin, gentamicin, sodium bicarbonate and 20% heat-inactivated horse serum. The medium was changed twice a week. After 1 week, the concentration of horse serum was reduced to 10%. After sixteen days in culture, cells were treated with 1 μg/mL of lipopolysaccharide (LPS). After six hours, different concentrations (1.0 μg/mL, 2.5 μg/mL and 5.0 μg/mL) of Compounds 1–4 and 6 were added to each well, and plates were incubated for 72 h at 37 °C in an atmosphere containing 5% CO2. Positive controls were treated only with LPS, while negative controls were treated with complete medium. After 72 h of incubation, cells were counted, and 2.5 mL of the supernatants were collected from each well and frozen at −40 °C for cytokine analyses. All experiments were carried out twice.
(§2) The cytotoxicity of the compounds was measured by the colorimetric methyl thiazol tetrazolium (MTT) assay and scored as a percentage of the absorbance reduction of treated cultures versus untreated control cultures. Primary microglial cell cultures were seeded into 96-well microplates at 10^4 cells per well and allowed to grow for 24 h. The initial concentration of Compounds 1–4 and 6 was 100 μg/mL in DMSO. The compounds were serially diluted in complete culture medium with two-fold dilutions (100, 50, 25, 12.5, 6.25, 3.12 and 1.56 μg/mL for in vitro cytotoxicity; 12.5, 6.25, 3.12, 1.56, 0.78 and 0.39 μg/mL for cytokine release). Different concentrations of the compounds were added to each well, and Tamoxifen was used as a positive control, with concentrations ranging from 50 to 1.56 μg/mL. Plates were incubated at 37 °C for 72 h under 5% CO2 atmosphere. Then, the 50 μL of MTT-PBS solution in culture medium were added to each well. The plates were further incubated for 4 h under the same conditions. The medium was then removed and replaced with 200 μL of DMSO to solubilize the MTT formazan product. The solutions were shaken for 20 min, and the absorbance was measured at 570 nm. […] Each value represents the mean of triplicate determinations. The IC50 values were calculated from the compound concentration-response curves.

[3] = test system: BHK-CHIKV-NCT cells; test: Cell-IQ live cell imaging, cytotoxicity by cell classification (viable cells); conditions: 100 μM, 48 h, 3000 cells/well
[4] = test system: IL-6; test: IL-6 release in supernatants of LPS-treated primary microglial cells (ELISA); assay type: cell-based, Wistar rats; conditions: 72 h; for IL-6 release: LPS-treated; for IC50: Rattus norvegicus, inhibition of LPS-induced cytokine release, read-out: IL-6 IC50
Protocol: as §1, with “After six hours, different concentrations (1.0 μg/mL, 2.5 μg/mL and 5.0 μg/mL) of Compounds 1–4 and 6 were added to each well, and plates were incubated for 72 h at 37 °C in an atmosphere containing 5% CO2.” left out
The supernatants obtained from cell cultures were analyzed for TNF-α, IL-1β, IL-4, IL-6, IL-8, IL-10 and IL-18 using commercially available ELISA kits following the manufacturers’ instructions. All samples were assayed in duplicate, and equivocal results were repeated. The cytokine concentration was calculated from a standard curve of the corresponding recombinant cytokine.
as §2, with “The initial concentration of Compounds 1–4 and 6 was 100 μg/mL in DMSO.” left out

[5] = test system: primary microglial cells; test: Microglial morphology cell count (ramified vs amoeboid) in LPS-treated cultures; assay type: cell-based, Wistar rats; conditions: 2.5 μg/mL (7.2 μM) and 5.0 μg/mL (14.4 μM), 72 h
Protocol: as §1, with “After six hours, different concentrations (1.0 μg/mL, 2.5 μg/mL and 5.0 μg/mL) of Compounds 1–4 and 6 were added to each well, and plates were incubated for 72 h at 37 °C in an atmosphere containing 5% CO2. Positive controls were treated only with LPS, while negative controls were treated with complete medium.” left out, “All experiments were carried out twice.” left out

[6] = test system: BHK-CHIKV-NCT cells; test: Cytotoxicity assay by ATP quantitation (CellTiter GLO); conditions: 100 μM, cell concentration lowered to 3000 cells/well
[7] = test system: CHIKV replicon; conditions: summary statement

SMILES | IC50 ([1]; converted from μg/mL, range over all cytokines) | IC50 ([1]; range over IL-1β, IL-6, IL-8, IL-18, TNF-α, IL-4, IL-10, read-out: IC50-values for the inhibition of cytokine release, range over cytokines) | IC50 at 72 h [2] | decrease in the amount of viable cells (living or dividing) [3] | IL-6 release ([4]; C1: 1.0 μg/mL) | IL-6 release ([4]; C2: 2.5 μg/mL) | IL-6 release ([4]; C3: 5.0 μg/mL) | IC50 [4] | effect on ramified (RM) and amoeboid (AM) microglial cell density [5] | reduction of ATP level [6] | overall activity in the CHIKV replicon model [7]
C=C(C)[C@@H]1C/C=C2\C(=O)O[C@@H](C[C@]3(C)CC(=O)[C@@H](CC(=O)C1)O3)[C@@H]2O [Compound 2, sinuleptolide] | 1.4 to 8.3 µM | 0.5 to 2.9 µg/mL | > 100 µg/mL | > 80% | 12.1 ± 0.9 pg/mL | 7.8 ± 1.4 pg/mL | 8.5 ± 1.3 pg/mL | 2.2 µg/mL (≈ 6.31 µM) | significant RM and AM mean differences; also recorded: significantly reduce the number of activated amoeboid cells | 44% | moderate inhibition
C=C(C)C1CCC23OC2C(CC2(C)CC(=O)C(CC(=O)C1)O2)OC3=O (centres unmarked) [Compound 3, scabrolide D] | – | – | > 100 µg/mL | – | 12.9 ± 1.1 pg/mL | 11.5 ± 1.3 pg/mL | 13.2 ± 1.2 pg/mL | > 12.5 µg/mL | – | – | –
C=C(C)[C@@H]1C/C=C2\C(=O)O[C@@H](C[C@]3(C)CC(=O)[C@H](CC(=O)C1)O3)[C@@H]2O [Compound 1, 5-epi-sinuleptolide] | – | – | > 100 µg/mL | > 80% | 14.2 ± 1.8 pg/mL | 11.7 ± 1.2 pg/mL | 13.5 ± 1.4 pg/mL | > 12.5 µg/mL | – | 39% | moderate inhibition
C=C(C)[C@@H]1CC(=O)[C@H]2[C@H](C1)[C@@H]1C(=O)O[C@@H]3C[C@@]4(C)O[C@H]2C(=O)[C@@H]4[C@H]13 [Compound 6, ineleganolide] | – | – | > 100 µg/mL | – | 13.2 ± 0.2 pg/mL | 12.1 ± 0.9 pg/mL | 11.8 ± 1.2 pg/mL | > 12.5 µg/mL | – | – | –
